From US20250195416A1, “DISSOLVABLE POLYMERIC OCULAR INSERT FOR DRUGS DELIVERY” (Alcon Inc., priority 2023, published 2025)

Test: In vitro release of olopatadine from polymer gel films (USP Apparatus 7, HPLC-UV)
Assay type: physicochemical
Settings: FIGS. 1A and 1B
Description: Release of olopatadine from polymer gel films was studied in vitro using water or phosphate buffered saline (PBS) as the dissolution media. Dissolution was performed using USP Apparatus 7 and samples were collected by its autosampler. HPLC—with UV-vis detector was used to measure component concentration during dissolution samples at different time points. […] Olopatadine HCl remains as a zwitterion at physiological pH due to the negatively charged carboxylic group and positively charged tertiary amino group on the molecule, therefore possible mechanism of API release from the gel films into dissolution media is through ion exchange. HA in gel films may complex with olopatadine through ionic interaction. […] Dissolution media plays a main role in the release profiles, as ionic bonding occurred between HA and Olopatadine. Ionic polymer provides some prolong release. Diffusion is believed to be the main release mechanism. PBS: phosphate-buffered saline pH 7.2; DI water: deionized water.

## CN(C)CC/C=C1/c2ccccc2COc2ccc(CC(=O)O)cc21.Cl [olopatadine, 11-[(Z)-3-(Dimethylamino)propylidene]-6-11-dihydrodibenz[b,e] oxepin-2-acetic acid hydrochloride]
Dissolution media PBS pH 7.2 or DI water
  Olopatadine release rate, PBS versus water: faster in PBS than in water
Water and PBS
  Burst release of olopatadine: no burst release
